ChEMBL document CHEMBL4024779, “Novel Terminal Bipheny-Based Diapophytoene Desaturases (CrtN) Inhibitors as Anti-MRSA/VISR/LRSA Agents with Reduced hERG Activity” (J Med Chem, 2018)

Molecular target: T1, 4,4'-diapophytoene desaturase (4,4'-diaponeurosporene-forming) (Staphylococcus aureus (strain USA300)) (UniProt Q2FDU6)
T1 sequence (whole entry): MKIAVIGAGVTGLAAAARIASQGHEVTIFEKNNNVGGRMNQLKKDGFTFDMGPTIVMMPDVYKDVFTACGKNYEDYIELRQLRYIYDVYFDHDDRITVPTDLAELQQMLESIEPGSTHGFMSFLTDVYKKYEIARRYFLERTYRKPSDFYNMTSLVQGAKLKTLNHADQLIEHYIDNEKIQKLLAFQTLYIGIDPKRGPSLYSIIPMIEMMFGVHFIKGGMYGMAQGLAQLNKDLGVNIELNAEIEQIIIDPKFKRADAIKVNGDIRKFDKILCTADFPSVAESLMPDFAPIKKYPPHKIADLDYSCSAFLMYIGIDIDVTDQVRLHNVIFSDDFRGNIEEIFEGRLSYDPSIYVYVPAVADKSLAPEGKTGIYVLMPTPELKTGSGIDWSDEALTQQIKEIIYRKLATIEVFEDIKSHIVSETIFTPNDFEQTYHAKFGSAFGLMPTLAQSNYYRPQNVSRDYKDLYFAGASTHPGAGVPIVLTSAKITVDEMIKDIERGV
Conditions: Staphylococcus aureus LAC, 1 uM
Description: Inhibition of CrtN in methicillin-resistant Staphylococcus aureus LAC USA300 assessed as increase in H2O2-induced bacterial death by measuring survival rate at 1 uM preincubated for 24 hrs followed by H2O2 addition measured after 30 mins by serial dilution method

CN(C/C=C/c1ccc(-c2ccccc2)cc1)Cc1coc2ccccc12.Cl
Survival: 2.3%
